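Step 1: Grow cells in 96-well plates. Step 2: Expose to compound for 48 hours at 5 concentrations. Step 3: Interpolate endpoints linearly; if unreached, use highest concentration. GI50 = concentration required for 50% inhibition of growth.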 Active and inactive are the calls of the source. Rule as the data show it: active = GI50 up to about 1.1 µM and inactive = higher.
What was measured:
Experiment in all cases: NCI anticancer screen, dose series, 48 h
CCRF-CEM = test system: CCRF-CEM
MOLT-4 = test system: MOLT-4
NCI-H460 = test system: NCI-H460
K562 = test system: K562
SK-MEL-28 = test system: SK-MEL-28
LOX IMVI = test system: LOX IMVI
EKVX = test system: EKVX
ACHN = test system: ACHN
SF-539 = test system: SF-539
DLD-1 = test system: DLD-1
OVCAR-3 = test system: OVCAR-3
HL-60 = test system: HL-60
SN12C = test system: SN12C
SK-MEL-5 = test system: SK-MEL-5
MCF7 = test system: MCF7
SF-268 = test system: SF-268
NCI-H23 = test system: NCI-H23
Hs-578T = test system: Hs-578T
NCI/ADR-RES = test system: NCI/ADR-RES
NCI-H522 = test system: NCI-H522

Measured: GI50

CN1C(=O)C(=CN(C)c2ccccc2)C(=O)N(C)C1=O
inactive: CCRF-CEM 40.4 µM | MOLT-4 > 100 µM | NCI-H460 > 100 µM | K562 > 100 µM | SK-MEL-28 > 100 µM | LOX IMVI > 100 µM | EKVX 65.8 µM | ACHN > 100 µM | SF-539 > 100 µM | DLD-1 > 100 µM | OVCAR-3 90.4 µM | HL-60 51.1 µM | SN12C > 100 µM | SK-MEL-5 > 100 µM

Nc1nc(Cl)cc(NCC2(CO)CC(c3ccccc3)C2)n1 (centres undefined)
inactive: CCRF-CEM 27 µM | MOLT-4 19.8 µM | MCF7 22.9 µM | NCI-H460 43.4 µM | K562 9.57 µM | SK-MEL-28 53.3 µM | LOX IMVI 7.16 µM | SF-268 94.4 µM | NCI-H23 3.57 µM | EKVX 5.41 µM | Hs-578T 19.2 µM | ACHN 16.1 µM | NCI/ADR-RES 13.8 µM | SF-539 > 100 µM | NCI-H522 37.9 µM | OVCAR-3 > 100 µM | HL-60 17.6 µM | SN12C 13.8 µM | SK-MEL-5 9.12 µM

CC1=C(CC2C(=O)N(c3ccccc3)S(=O)(=O)NC2C)C(=O)N(c2ccccc2)S(=O)(=O)N1C (centres undefined)
inactive: CCRF-CEM > 100 µM | MOLT-4 > 100 µM | NCI-H460 > 100 µM | K562 > 100 µM | SK-MEL-28 > 100 µM | LOX IMVI > 100 µM | SF-268 > 100 µM | NCI-H23 > 100 µM | EKVX > 100 µM | ACHN > 100 µM | SF-539 > 100 µM | DLD-1 > 100 µM | NCI-H522 > 100 µM | OVCAR-3 > 100 µM | SN12C > 100 µM | SK-MEL-5 > 100 µM

COC(=O)C1=C(O)c2cc3c(cc2[C@H](c2cc(OC)c(OC)c(OC)c2)C1)OCO3
inactive: CCRF-CEM 38.1 µM | MOLT-4 24.1 µM | NCI-H460 34 µM | K562 22.5 µM | SK-MEL-28 39.2 µM | LOX IMVI 30.5 µM | SF-268 51.5 µM | NCI-H23 41.7 µM | ACHN 23.1 µM | SF-539 > 100 µM | DLD-1 34.6 µM | OVCAR-3 19 µM | HL-60 14.3 µM | SN12C 54.1 µM | SK-MEL-5 20.8 µM

CS(=O)(=O)N/N=C/CN1C(=O)c2ccccc2C1=O
inactive: CCRF-CEM > 100 µM | MOLT-4 > 100 µM | NCI-H460 > 100 µM | K562 > 100 µM | SK-MEL-28 > 100 µM | SF-268 > 100 µM | NCI-H23 > 100 µM | EKVX > 100 µM | ACHN > 100 µM | SF-539 > 100 µM | DLD-1 > 100 µM | NCI-H522 > 100 µM | OVCAR-3 > 100 µM | HL-60 > 100 µM | SN12C > 100 µM | SK-MEL-5 > 100 µM

CC1(Cl)CC(C)(/C=C/Cl)C(Cl)CC1Cl (centres undefined)
inactive: CCRF-CEM 19.1 µM | MOLT-4 14.3 µM | NCI-H460 14.2 µM | K562 9.79 µM | SK-MEL-28 15 µM | SF-268 15.9 µM | NCI-H23 19.8 µM | EKVX 12.1 µM | ACHN 14.7 µM | SF-539 17.1 µM | DLD-1 16.7 µM | NCI-H522 16.7 µM | OVCAR-3 14.5 µM | SN12C 17.3 µM | SK-MEL-5 14 µM

CC1=CCCC2C(C=O)(C1)CC(C)C2(CO)CC/C(=C/CO)CO (centres undefined)
inactive: CCRF-CEM 71.9 µM | MOLT-4 44.7 µM | NCI-H460 > 100 µM | K562 89.5 µM | SK-MEL-28 > 100 µM | LOX IMVI > 100 µM | NCI-H23 90.6 µM | EKVX > 100 µM | ACHN > 100 µM | DLD-1 > 100 µM | NCI-H522 38.4 µM | OVCAR-3 > 100 µM | SN12C > 100 µM | SK-MEL-5 > 100 µM

— ChEMBL document CHEMBL1201862, “PubChem BioAssay data set” (2004)
